“And” between values parts separate entries of the source, which are not always exact repeats. Equal values may be shown once. Inconclusive results and toxic doses are left out.
System: CD2F1 mice, L1210 leukemia ip, survival T/C
Test: NCI In Vivo Anticancer Drug Screen. Data for tumor model L1210 Leukemia (intraperitoneal) in CD2F1 (CDF1) mice
Settings: higher = longer survival
In short: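 Ratio T/C, where T is the treated-group value and C the vehicle-dosed control value, from mice implanted with a transplantable tumor.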

[1] = endpoint: mean survival time, dose: 100.0 mg/kg/injection, schedule: Q04DX003 (ip), vehicle: saline with Tween-80
[2] = endpoint: mean survival time, dose: 200.0 mg/kg/injection, schedule: Q04DX003 (ip), vehicle: saline with Tween-80
[3] = endpoint: mean survival time, dose: 400.0 mg/kg/injection, schedule: Q04DX003 (ip), vehicle: saline with Tween-80

Cc1cn(C2CC(O)C(CN=[N+]=[N-])O2)c(=O)[nH]c1=O (configuration not stated)
T/C (endpoint: mean survival time, dose: 12.5 mg/kg/injection, schedule: Q01DX005 (ip), vehicle: other): 93 % of control
T/C (endpoint: mean survival time, dose: 25.0 mg/kg/injection, schedule: Q01DX005 (ip), vehicle: other): 96 % of control
T/C (endpoint: mean survival time, dose: 50.0 mg/kg/injection, schedule: Q01DX005 (ip), vehicle: other): 95 % of control
T/C (endpoint: mean survival time, dose: 100.0 mg/kg/injection, schedule: Q01DX005 (ip), vehicle: other): 93 % of control
T/C (endpoint: mean survival time, dose: 200.0 mg/kg/injection, schedule: Q01DX005 (ip), vehicle: other): 93 % of control

O=C(c1ccccc1)C1C(c2ccccc2)C2(CCCCC2=O)C(c2ccccc2)CC1(O)c1ccccc1 (configuration not stated)
T/C (endpoint: mean survival time, dose: 100.0 mg/kg/injection, schedule: Q01DX001 (ip), vehicle: Klucel (hydroxypropylcellulose) (HPC)): 96 % of control

CC1(C)C(=O)CCC2(C)C(OC(=O)c3ccc(C(=O)O)cc3)CCCC12 (configuration not stated)
T/C [1]: 96 % of control
T/C [2]: 93 % of control
T/C [3]: 93 % of control

CCCCCCCCCCCCCCCCOc1ccc(S(=O)(=O)NC2CCCCC2)cc1[N+](=O)[O-]
T/C [1]: 90 % of control
T/C [2]: 93 % of control
T/C [3]: 94 % of control

CC(C)N(CC(=O)O)CC(=O)O
T/C (endpoint: mean survival time, dose: 100.0 mg/kg/injection, schedule: Q01DX001 (ip), vehicle: saline): 100 % of control
T/C (endpoint: mean survival time, dose: 200.0 mg/kg/injection, schedule: Q01DX001 (ip), vehicle: saline): 100 % of control

O=S(=O)(Nc1ccc(O)c(Cl)c1)c1ccccc1
T/C [1]: 98 % of control
T/C [2]: 97 % of control
T/C [3]: 110 % of control

OC(c1ccccc1)(c1ccccc1)C1c2ccccc2-c2[nH]c3ccccc3c21 (configuration not stated)
T/C (endpoint: mean survival time, dose: 25.0 mg/kg/injection, schedule: Q01DX001 (ip), vehicle: saline with Tween-80): 96 % of control
T/C (endpoint: mean survival time, dose: 50.0 mg/kg/injection, schedule: Q01DX001 (ip), vehicle: saline with Tween-80): 93 % of control
T/C (endpoint: mean survival time, dose: 100.0 mg/kg/injection, schedule: Q01DX001 (ip), vehicle: saline with Tween-80): 89 % of control

N#Cc1ccc(CO)cc1Br
T/C (endpoint: mean survival time, dose: 100.0 mg/kg/injection, schedule: Q04DX003 (ip), vehicle: saline): 97 % of control
T/C (endpoint: mean survival time, dose: 200.0 mg/kg/injection, schedule: Q04DX003 (ip), vehicle: saline): 90 % of control
T/C (endpoint: mean survival time, dose: 400.0 mg/kg/injection, schedule: Q04DX003 (ip), vehicle: saline): 92 % of control

Nc1ncn(C2OC(COC(=O)c3ccccc3)C(OC(=O)c3ccccc3)C2OC(=O)c2ccccc2)c(=O)n1 (configuration not stated)
T/C (endpoint: mean survival time, dose: 1.56 mg/kg/injection, schedule: Q01DX009 (ip), vehicle: saline): 108 % of control
T/C (endpoint: mean survival time, dose: 6.25 mg/kg/injection, schedule: Q01DX009 (ip), vehicle: saline): 164 % of control and 170 % of control
T/C (endpoint: mean survival time, dose: 12.5 mg/kg/injection, schedule: Q01DX009 (ip), vehicle: saline): 205 % of control and 227 % of control
T/C (endpoint: mean survival time, dose: 25.0 mg/kg/injection, schedule: Q01DX009 (ip), vehicle: saline): 115 % of control and 124 % of control
T/C (endpoint: mean survival time, dose: 50.0 mg/kg/injection, schedule: Q01DX009 (ip), vehicle: saline): 91 % of control and 93 % of control

CC(C)(C)CC(C)(C)NCC(O)COc1ccc(C(C)(C)c2ccc(OCC(O)CNC(C)(C)CC(C)(C)C)cc2)cc1 (configuration not stated)
T/C (endpoint: mean survival time, dose: 3.0 mg/kg/injection, schedule: Q01DX009 (ip), vehicle: saline with Tween-80): 102 % of control
T/C (endpoint: mean survival time, dose: 3.12 mg/kg/injection, schedule: Q01DX009 (ip), vehicle: Klucel (hydroxypropylcellulose) (HPC)): 93 % of control
T/C (endpoint: mean survival time, dose: 6.0 mg/kg/injection, schedule: Q01DX009 (ip), vehicle: saline with Tween-80): 100 % of control
T/C (endpoint: mean survival time, dose: 6.25 mg/kg/injection, schedule: Q01DX009 (ip), vehicle: Klucel (hydroxypropylcellulose) (HPC)): 94 % of control
T/C (endpoint: mean survival time, dose: 12.0 mg/kg/injection, schedule: Q01DX009 (ip), vehicle: saline with Tween-80): 94 % of control
T/C (endpoint: mean survival time, dose: 12.5 mg/kg/injection, schedule: Q01DX009 (ip), vehicle: Klucel (hydroxypropylcellulose) (HPC)): 100 % of control

COC(=O)C1CN1C1=C(C)C(=O)C2=C(C1=O)C(COC(N)=O)C1(OC)C3NC3CN21 (configuration not stated)
T/C (endpoint: median survival time, dose: 1.5 mg/kg/injection, schedule: Q01DX001 (ip), vehicle: water): 104 % of control
T/C (endpoint: median survival time, dose: 3.0 mg/kg/injection, schedule: Q01DX001 (ip), vehicle: water): 103 % of control
T/C (endpoint: median survival time, dose: 6.0 mg/kg/injection, schedule: Q01DX001 (ip), vehicle: water): 123 % of control
T/C (endpoint: median survival time, dose: 12.0 mg/kg/injection, schedule: Q01DX001 (ip), vehicle: water): 123 % of control
T/C (endpoint: median survival time, dose: 24.0 mg/kg/injection, schedule: Q01DX001 (ip), vehicle: water): 121 % of control and 124 % of control

CCCCCCCCCCCCCCCC1=NC(C)(C)CN1C(C)C
T/C (endpoint: mean survival time, dose: 1.25 mg/kg/injection, schedule: Q01DX009 (ip), vehicle: saline with Tween-80): 95 % of control
T/C (endpoint: mean survival time, dose: 2.5 mg/kg/injection, schedule: Q01DX009 (ip), vehicle: saline with Tween-80): 102 % of control
T/C (endpoint: mean survival time, dose: 5.0 mg/kg/injection, schedule: Q01DX009 (ip), vehicle: saline with Tween-80): 98 % of control

Reference: PubChem BioAssay AID256 (DTP/NCI, 2004)
